# Source: patent publication US10736923B2, “Methods and compositions for generating chondrocyte lineage cells and/or cartilage like tissue” (UNIVERSITY HEALTH NETWORK, priority 2013, dated 2020)
# What was measured:
# Format in all cases: cell-based, human
# [1] = tested on: hPSC-derived paraxial mesoderm; test: Chondrocyte specification in micromass culture with TGFB3 or BMP4 (histology, scatter flow cytometry, qRT-PCR, immunostaining)
# Description: FIG. 4. TGFB3 and BMP4 specify chondrocytes and cartilage-like tissues with articular cartilage and growth plate cartilage phenotypes. (A) Micrographs of 5 week old micromasses derived with TGFB3 or BMP4, 20× magnification. (B) Tissue histology (stained with toluidine blue) of 13 week cartilage tissues derived with TGFB3 or BMP4. […] (C) Flow cytometric analysis of forward and side cell scatter parameters of 3 week and 5 week old micromasses. Side scatter indicates cell granularity and forward cell scatter indicates cell size. (D) Comparison of hPSC-derived micromass tissues to fetal primary chondrocyte derived micromass tissues and the developing human fetal femur cartilage. Articular cartilage regions appear to have smaller cells in size compared to growth plate like regions, which contain cells which appear enlarged (hypertrophic). Cartilage tissues in micromass as well as in the fetal femur stain uniformly with the toluidine blue stain (images are pink/purple in color and indicate the presence of cartilage proteins). The BMP4-treated micromass tissues contain a large number of enlarged cells which is similar to the bottom panel of the fetal cartilage which represents a growth plate cartilage. TGFB3 treated micromass cultures contain fewer, if any, enlarged chondrocytes, and appear similar to the upper panel of the fetal cartilage which is the site of articular cartilage. (E) Micrograph using GDF5 instead of BMP4 to generate hypertrophic chondrocytes. (F) Histological analyses of cartilage tissues derived from hiPSCs stained with Toluidine blue after 12 weeks. (G,H) Immunohistochemical staining of hESC-derived cartilage tissues for type II Collagen (G, 8 week tissues), and lubricin (H, 12 week tissues).
# FIG. 5. Gene expression analyses of chondrocyte specification in the presence of TGFB3 or BMP4 during stages 3 and 4 of differentiation respectively. General chondrocyte genes Sox9 (A) and collagen 2 (B), hypertrophic genes collagen 10 (C), Runx2 (D), osterix (E) and alkaline phosphatase (F), articular cartilage associated genes lubricin (G) and cartilage intermediate layer protein 2 (CILP2) (H), interzone-related (joint progenitor) genes GDF5 (I), ERG (J) and Wnt9a (K). Expression is copy number relative to TBP (n=3 to 8 biological replicates) and is compared to primary fetal chondrocytes (aged 16 to 19 weeks, n=4), primary healthy adult articular chondrocytes (n=2), and growth plate-like chondrocytes isolated from the iliac crest of an adult (n=1). T15 Mesoderm indicates day 15 hESC-derived paraxial mesoderm (DM+FGF-treated). Error bars indicate s.e.m.
# FIG. 8. TGFβ1, TGFβ2, and TGFβ3 generated articular chondrocytes from hPSC-derived paraxial mesoderm. COL2A1, lubricin, and CILP2 gene expression after 12 weeks of micromass culture in the presence of TGF agonists as indicated (10 ng/ml). Values represent copy number mRNA relative to TBP. Error bars indicate s.e.m.
# Previous studies have shown that TGFBeta/BMP signaling is required to generate chondrocyte progenitors from paraxial mesoderm. […] Following 10 days of TGFb3 treatment (day 25 total), cultures could be switched to media containing BMP4 or maintained in TGFb3 (stage 4) in order to specify subsets of chondrocytes (articular/non-hypertrophic or growth plate/hypertrophic). To determine the chondrocyte potential of the day 15 mesoderm populations, the cells were plated at high cell density in a 20 microliter volume on tissue culture treated Petri dishes for an hour (micromass) and then the ‘spot’ was submerged/covered with media. In our initial studies, the cells were ‘spotted’ in a media containing 2% fetal bovine serum. However, this short serum exposure can be omitted with no effects on cartilage formation at later stages, making this protocol optionally serum-free. After 2 to 3 days, serum-free media containing TGFb3 is added to the culture to generate chondrocyte progenitors. […]
# [2] = tested on: hPSC-derived chondrocytes; test: CD73 flow cytometry of hPSC-derived cartilage tissues; conditions: hPSC-derived cartilage tissues after 11 weeks
# Description: (§1) FIG. 6. CD73 is expressed by articular chondrocytes. Flow cytometric analyses of primary chondrocytes (A) Healthy adult articular chondrocytes and iliac crest GPC-like chondrocytes, (B) Primary fetal chondrocytes, primary (C) or passaged (passage (P)2, D) fetal chondrocytes after 9 to 10 weeks of micromass culture in the presence of TGFB3 or BMP4, and (E) hPSC-derived chondrocytes after 11 weeks derived in the presence of TGFB3 or BMP4. (F) Time course of CD73 and PDGFR-beta cells surface expression on T12 and T15 paraxial mesoderm populations, and micromass cultures treated with TGFB3 after 3 days, 10 days, and 2 weeks. (G) Time course of CD73 expression on TGFB3-treated micromasses after 3 days, 7 days, 10 days, and 2 to 5 weeks.
# Primary (P0) and passaged (P2) fetal chondrocytes can also be cultured in micromass with TGFB3 or BMP4, similar to how hPSC-derived cartilage tissues are formed. TGFB3-treated fetal P0-derived or fetal P2-derived cartilage tissues contain over 93% CD73 positive cells, while BMP4 treatment reduces the percentage of CD73+ cells to 70% and 61% respectively (FIG. 6C,D). CD73 expression is also expressed by over 98% of hPSC-derived cartilage tissues derived with TGFB3-treatment (FIG. 6E). The percentage of CD73+ cells is reduced to only about 57% of cells after BMP4-treatment. […]
# fetal chondrocytes = test: CD73 flow cytometry of fetal chondrocytes in micromass culture; conditions: 9 to 10 weeks of micromass culture
# Description: as §1
# Primary (P0) and passaged (P2) fetal chondrocytes can also be cultured in micromass with TGFB3 or BMP4, similar to how hPSC-derived cartilage tissues are formed. TGFB3-treated fetal P0-derived or fetal P2-derived cartilage tissues contain over 93% CD73 positive cells, while BMP4 treatment reduces the percentage of CD73+ cells to 70% and 61% respectively (FIG. 6C,D). CD73 expression is also expressed by over 98% of hPSC-derived cartilage tissues derived with TGFB3-treatment (FIG. 6E). The percentage of CD73+ cells is reduced to only about 57% of cells after BMP4-treatment. Thus, CD73 marks primary healthy adult ACs, a proportion of healthy fetal chondrocytes, fetal chondrocytes or passaged fetal chondrocytes cultured as micromasses in TGFB3, and TGFB3-treated articular chondrocyte-like cells derived from human PSCs.
# [3] = tested on: primitive streak-like mesoderm population; test: Paraxial mesoderm specification in monolayer culture, flow cytometry of cell surface markers
# Protocol: FIG. 2. Characterization of paraxial mesoderm derived from hPSCs. Flow cytometric analysis of day 5 mesoderm treated with no additional factors (0 DM, no FGF), FGF, 4 μM DM, or 4 μM DM+FGF. Day 5 profiles depict KDR and PDGFRa expression, a double-positive population (gated) indicates mesoderm that has cardiac potential (20). Treatment with FGF results in less PDGFRa expression on day 5. (B) Expression of cell surface markers CD73, CD105, and PDGFR-beta on mesoderm populations on day 15 of differentiation. […] Experimental cell treatments during day 4 to day 6 include the combination of Dorsomorphin, bFGF, TGFbeta inhibitor (SB431542) in the presence or absence of the wnt pathway inhibitor IWP2. Flow cytometric analyses of CD73 and CD105, on day 15 mesoderm populations derived as indicated. (D) Gene expression analyses of day 15 mesoderm populations derived in indicated factors. Nkx2.5 is a cardiac transcription factor, Meox1 and Nkx3.2 are paraxial mesoderm and somite transcription factors. (E) Micrographs depicting 1 day old micromasses and 1 week old micromasses derived from day 15 mesoderm populations as indicated. (F) Flow cytometric analysis of cardiac troponin T (cTnT) expression in 1 week old micromasses derived from day 15 mesoderms as indicated. […] To generate chondrocytes, it is essential to first specify this PS population to a paraxial mesoderm fate. Previous studies have shown that mesoderm populations that express cell surface markers often found on mesenchymal stem cells, CD73 and CD105, have chondrogenic potential (Hwang, Kim et al. 2006). The expression of these two cell surface markers, as well as the expression of transcription factors Meox1 and Nkx3.2 combined with the lack of expression of Nkx2.5 to monitor the emergence of a paraxial mesoderm population was used. Previous experiments in the mouse ESC model system have shown the importance of inhibiting the BMP signaling pathway in the context of FGF signaling to prevent the emergence of cardiac mesoderm and promote the development of paraxial mesoderm (Craft, Ahmed et al. 2013). […] Very few cells in untreated mesoderm conditions expressed CD73 and CD105 (7.46%, FIG. 2B). […] The changes in expression of these surface markers were accompanied by the upregulation of paraxial genes Meox1 and Nkx3.2 (FIG. 2C). […] Thus, in some cell lines, the efficiency of paraxial mesoderm specification may be improved in the presence of a Wnt pathway antagonist immediately following the PS mesoderm induction phase.
# [4] = tested on: day 15 mesoderm populations; test: Gene expression analyses of day 15 mesoderm populations
# Protocol: FIG. 2. Characterization of paraxial mesoderm derived from hPSCs. Flow cytometric analysis of day 5 mesoderm treated with no additional factors (0 DM, no FGF), FGF, 4 μM DM, or 4 μM DM+FGF. Day 5 profiles depict KDR and PDGFRa expression, a double-positive population (gated) indicates mesoderm that has cardiac potential (20). Treatment with FGF results in less PDGFRa expression on day 5. (B) Expression of cell surface markers CD73, CD105, and PDGFR-beta on mesoderm populations on day 15 of differentiation. […] Experimental cell treatments during day 4 to day 6 include the combination of Dorsomorphin, bFGF, TGFbeta inhibitor (SB431542) in the presence or absence of the wnt pathway inhibitor IWP2. Flow cytometric analyses of CD73 and CD105, on day 15 mesoderm populations derived as indicated. (D) Gene expression analyses of day 15 mesoderm populations derived in indicated factors. Nkx2.5 is a cardiac transcription factor, Meox1 and Nkx3.2 are paraxial mesoderm and somite transcription factors. (E) Micrographs depicting 1 day old micromasses and 1 week old micromasses derived from day 15 mesoderm populations as indicated. (F) Flow cytometric analysis of cardiac troponin T (cTnT) expression in 1 week old micromasses derived from day 15 mesoderms as indicated. […] To generate chondrocytes, it is essential to first specify this PS population to a paraxial mesoderm fate. […]
# [5] = tested on: day 15 mesoderm populations; test: Micromass assay of day 15 mesoderm populations
# Protocol: FIG. 2. Characterization of paraxial mesoderm derived from hPSCs. Flow cytometric analysis of day 5 mesoderm treated with no additional factors (0 DM, no FGF), FGF, 4 μM DM, or 4 μM DM+FGF. Day 5 profiles depict KDR and PDGFRa expression, a double-positive population (gated) indicates mesoderm that has cardiac potential (20). Treatment with FGF results in less PDGFRa expression on day 5. (B) Expression of cell surface markers CD73, CD105, and PDGFR-beta on mesoderm populations on day 15 of differentiation. […] Experimental cell treatments during day 4 to day 6 include the combination of Dorsomorphin, bFGF, TGFbeta inhibitor (SB431542) in the presence or absence of the wnt pathway inhibitor IWP2. Flow cytometric analyses of CD73 and CD105, on day 15 mesoderm populations derived as indicated. (D) Gene expression analyses of day 15 mesoderm populations derived in indicated factors. Nkx2.5 is a cardiac transcription factor, Meox1 and Nkx3.2 are paraxial mesoderm and somite transcription factors. (E) Micrographs depicting 1 day old micromasses and 1 week old micromasses derived from day 15 mesoderm populations as indicated. (F) Flow cytometric analysis of cardiac troponin T (cTnT) expression in 1 week old micromasses derived from day 15 mesoderms as indicated. […] Previous studies have shown that TGFBeta/BMP signaling is required to generate chondrocyte progenitors from paraxial mesoderm. […] Following 10 days of TGFb3 treatment (day 25 total), cultures could be switched to media containing BMP4 or maintained in TGFb3 (stage 4) in order to specify subsets of chondrocytes (articular/non-hypertrophic or growth plate/hypertrophic). To determine the chondrocyte potential of the day 15 mesoderm populations, the cells were plated at high cell density in a 20 microliter volume on tissue culture treated Petri dishes for an hour (micromass) and then the ‘spot’ was submerged/covered with media. In our initial studies, the cells were ‘spotted’ in a media containing 2% fetal bovine serum. […]
# [6] = 8- to 12-week old tissue, versus tissue maintained in TGFb3
substance,measurement,setting,value
BMP4: Bone Morphogenetic Protein 4,"forward and side scatter of live cells (cell size, granularity)",[1]; 3 week and 5 week micromasses,larger forward scatter (FSC)
same,chondrocyte morphology,[1]; 5 week old micromasses,round with cobblestone-like appearance
same,COL10A1 expression,[1]; [6],significantly higher
same,RUNX2 expression,[1]; [6],significantly higher
same,SP7 expression,[1]; [6],significantly higher
same,alkaline phosphatase (ALP/ALPL) expression,[1]; [6],significantly higher
same,Lubricin protein (immunohistochemistry),[1]; 12 week micromass tissue,not
same,"tissue histology (toluidine blue), chondrocyte size","[1]; 13 week old tissues, GDF5 instead of BMP4",enlarged hypertrophic chondrocytes
same,cartilage tissue formation on direct plating of day 15 mesoderm,"[1]; direct plating into BMP4 containing media, no TGFB3 stimulation",non-adherent cell aggregates that did not form cartilage tissue
same,COL2A1 expression,"[1]; qRT-PCR, by 2 weeks of culture",upregulated
same,SOX9 expression,"[1]; qRT-PCR, by 2 weeks of culture",upregulated
same,CD73 positive cells,[2],about 57%
same,CD73 positive cells,fetal chondrocytes; passaged (P2) fetal chondrocytes,61%
same,CD73 positive cells,fetal chondrocytes; primary (P0) fetal chondrocytes,70%
"bFGF: basic fibroblast growth factor, FGF agonist",expression patterns of PDGFRa and KDR,"[3]; T5, versus untreated mesoderm, DM T4 to T6",did not change the PDGFRa/KDR population drastically
same,proportion of cells expressing CD73 and CD105,"[3]; day 15, FGF day 4 to day 15, DM T4-T6",52%
same,PDGF receptor beta expression on CD73-positive cells,[3]; day 15 monolayers,also expressed the PDGF receptor beta
same,Meox1 expression,[4],upregulation
same,Nkx3.2 expression,[4],upregulation
same,generation of cardiomyocytes (cTnT),[5]; 1 week of micromass culture,did not generate any cardiomyocytes
same,cartilage-like tissue formation,"[5]; after 4 weeks of micromass culture, treatment in monolayer phase",did not maintain a cartilage tissue phenotype
same,adherence and survival in micromass culture,[5]; first week of micromass culture,survived the first week of micromass culture as an adherent layer of cells
